Like-named read-outs stand apart in the source and are kept apart here.
Assays:
human OX2 receptor = human OX2 receptor (Homo sapiens (Human), UniProt O43614); assay: Measurement of orexin type 2 receptor agonist activity (Experimental Example 2-2, FDSS uCELL, calcium indicator); format: cell-based; conditions: CHO cells expressing human OX2 receptor; for EC50: Fluo-4 AM
Experimental: CHO cells forcibly expressing human OX2 receptor were seeded in each well of 384 well black transparent bottom plate (BD Falcon) at 7,500 cells/well, and cultured for one day in a 5% CO2 incubator at 37° C. […] The plate was stood for 30 min in a 5% CO2 incubator at 37° C., and further stood at room temperature for 30 min. A test compound prepared by diluting with assay buffer B (HESS, 20 mM HEPES, 0.1% BSA) was added at 10 μL/well, and the fluorescence value was measured by FDSSμCELL (Hamamatsu Photonics K.K.) every one sec for 1 min, and thereafter every two sec for 1 min sec.

[1] = biological target: human orexin type 2 receptor (hOX2R) (Homo sapiens (Human), UniProt O43614); assay: Measurement of orexin type 2 receptor agonist activity (Experimental Example 2-1, FLIPR TETRA, intracellular Ca2+); format: cell-based; conditions: CHO dhfr- cells expressing hOX2R
human orexin type 2 receptor (hOX2R), sequence (O43614 whole entry): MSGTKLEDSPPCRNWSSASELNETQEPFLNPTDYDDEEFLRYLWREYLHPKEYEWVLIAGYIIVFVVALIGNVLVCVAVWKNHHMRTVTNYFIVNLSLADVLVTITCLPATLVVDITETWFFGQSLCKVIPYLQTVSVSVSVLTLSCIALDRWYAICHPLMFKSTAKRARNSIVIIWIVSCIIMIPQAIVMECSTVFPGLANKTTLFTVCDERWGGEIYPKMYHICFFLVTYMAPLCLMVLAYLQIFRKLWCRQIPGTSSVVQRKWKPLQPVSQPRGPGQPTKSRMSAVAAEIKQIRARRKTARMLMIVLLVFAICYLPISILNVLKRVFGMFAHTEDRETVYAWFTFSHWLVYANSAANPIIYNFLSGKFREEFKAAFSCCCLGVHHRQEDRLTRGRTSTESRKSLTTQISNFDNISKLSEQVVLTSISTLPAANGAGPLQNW

C57BL/6J mice = assay: Measurement of locomotor activity in mice (Experimental Example 3); format: in vivo, mouse; conditions: male C57BL/6J mice; 30 mg/kg intraperitoneal; measured for 2 hr after administration
Experimental: Increased locomotor activity is one of the indexes of arousal action together with increase in wakefulness time, increase in body temperature, enhancement of cardiovascular system parameters and the like. In this Experimental Example, the arousal action effective for the treatment of narcolepsy was evaluated by measuring the locomotor activity of mouse. Male C57BL/6J mice (6-10 weeks old, Japan CLEA) were used for the measurement of locomotor activity (8 mice each group), infrared rays were irradiated from the top part of the cage, and a locomotor activity measuring device (MDC system—Neurosciences Idea) capable of quantifying the number of times the mice pass through the irradiated rays was used. To be specific, the mice were placed in the cage of the device and acclimatized for 4 hours or longer, and a test compound was intraperitoneally administered (dose: 30 mg/kg body weight). The locomotor activity was measured for 2 hr after the administration. In the test compound group, a solution obtained by dissolving the test compound in a solvent (composition: 10% DMSO, 10% Cremophor EL (trade name), 20% polyethylene glycol 400 (20% PEG400, 60% H2O)) was administered to mice. On the other hand, in the control group, only the aforementioned solvent not containing the test compound was administered to mice.

[2] = DMSO = 0%, reference OX-A at 10 nM
[3] = CHO, DMSO = 0%, reference OX-A at 10 nM
[4] = agonist activity, 10 nM human orexin B = 100%
[5] = value at 30 uM concentration, orexin B as full agonist = 100%
[6] = FLIPR TETRA, Fluo-4AM, read-out: Emax (%)

human OX2 receptor, sequence (O43614 whole entry): as above

Compound | EC50 (human OX2 receptor) [nM] | Emax (human OX2 receptor; [3]) [%] | further results
COC(=O)N1CCC[C@H](NS(C)(=O)=O)[C@@H]1CO[C@H]1CC[C@@H](c2cccc(O)c2)CC1 (relative stereo) [Example 343, methyl cis-2-(((cis-4-(3-hydroxyphenyl)cyclohexyl)oxy)-methyl)-3-((methylsulfonyl)amino)piperidine-1-carboxylate] | 150 |  | Emax (human OX2 receptor; [2]): 109%
COC(=O)N1CCC[C@H](NS(C)(=O)=O)[C@@H]1CO[C@H]1CC[C@@H](c2ccc(OC)cc2)CC1 (relative stereo) [Example 344, methyl cis-2-(((cis-4-(4-methoxyphenyl)cyclohexyl)oxy)-methyl)-3-((methylsulfonyl)amino)piperidine-1-carboxylate] | 290 | 109 | 
COC(=O)N1CCC[C@H](NS(C)(=O)=O)[C@@H]1CO[C@H]1CC[C@@H](c2ccc(O)cc2)CC1 (relative stereo) [Example 345, methyl cis-2-(((cis-4-(4-hydroxyphenyl)cyclohexyl)oxy)-methyl)-3-((methylsulfonyl)amino)piperidine-1-carboxylate] | 21 | 105 | 
COC(=O)N1CCC[C@H](NS(C)(=O)=O)[C@@H]1CO[C@H]1CC[C@@H](c2ccccc2O)CC1 (relative stereo) [Example 347, methyl cis-2-(((cis-4-(2-hydroxyphenyl)cyclohexyl)oxy)-methyl)-3-((methylsulfonyl)amino)piperidine-1-carboxylate] | 260 | 94 | 
O=S(=O)(N[C@H]1CCCN[C@H]1CO[C@H]1CC[C@@H](c2ccccc2)CC1)C1CC1 (relative stereo) [Example 353, N-(cis-2-(((cis-4-phenylcyclohexyl)oxy)methyl)-piperidin-3-yl)cyclopropanesulfonamide] | 1300 | 100 | 
CC(=O)N1CCC[C@H](NS(=O)(=O)C2CC2)[C@@H]1CO[C@H]1CC[C@@H](c2ccccc2)CC1 (relative stereo) [Example 354, N-(cis-1-acetyl-2-(((cis-4-phenylcyclohexyl)oxy)methyl)-piperidin-3-yl)cyclopropanesulfonamide] | 51 | 104 | 
CCNC(=O)N1CCC[C@H](NS(=O)(=O)C2CC2)[C@@H]1CO[C@H]1CC[C@@H](c2ccccc2)CC1 (relative stereo) [Example 355, cis-3-((cyclopropylsulfonyl)amino)-N-ethyl-2-(((cis-4-phenylcyclohexyl)oxy)methyl)-piperidine-1-carboxamide] | 0.44 | 108 | 
CC(C)OC(=O)N1CCC[C@H](NS(=O)(=O)C2CC2)[C@@H]1COC1CCN(c2ncccn2)CC1 (relative stereo) [Example 356, isopropyl cis-3-((cyclopropylsulfonyl)amino)-2-(((1-(pyrimidin-2-yl)piperidin-4-yl)oxy)methyl)piperidine-1-carboxylate] | 21 | 98 | 
CC(=O)N1CCC[C@H](NS(=O)(=O)C2CC2)[C@@H]1CO[C@H]1CC[C@@H](C(C)C)CC1 (relative stereo) [Example 357, N-(cis-1-acetyl-2-(((cis-4-isopropylcyclohexyl)oxy)methyl)-piperidin-3-yl)cyclopropanesulfonamide] | 84 | 101 | 
CNC(=O)N1CCC[C@H](NS(=O)(=O)C2CC2)[C@@H]1CO[C@H]1CC[C@@H](c2ccccc2)CC1 (relative stereo) [Example 359, cis-3-((cyclopropylsulfonyl)amino)-N-methyl-2-(((cis-4-phenylcyclohexyl)oxy)methyl)-piperidine-1-carboxamide] | 1.1 | 97 | 
O=C(OCC(F)(F)F)N1CCC[C@H](NS(=O)(=O)C2CC2)[C@@H]1COC1CCN(c2ncccn2)CC1 (relative stereo) [Example 360, 2,2,2-trifluoroethyl cis-3-((cyclopropylsulfonyl)amino)-2-(((1-(pyrimidin-2-yl)piperidin-4-yl)oxy)methyl)piperidine-1-carboxylate] | 210 | 98 | 
CC(OC(=O)N1CCC[C@H](NS(=O)(=O)C2CC2)[C@@H]1COC1CCN(c2ncccn2)CC1)C(F)(F)F (relative stereo) [Example 362, 1,1,1-trifluoropropan-2-yl cis-3-((cyclopropylsulfonyl)amino)-2-(((1-(pyrimidin-2-yl)piperidin-4-yl)oxy)methyl)piperidine-1-carboxylate] | 390 | 95 | 
CCNC(=O)N1CCC[C@H](NS(C)(=O)=O)[C@@H]1CO[C@H]1CC[C@@H](C(C)C)CC1 [Example 2, (2R,3S)—N-ethyl-2-(((cis-4-isopropylcyclohexyl)oxy)methyl)-3-((methylsulfonyl)amino)piperidine-1-carboxamide] |  |  | EC50 [1, 4]: 1.9 nM; Emax at 30 µM [1, 5]: 99%; locomotor activity (counts) (mean ± S.E.M., n = 8) (C57BL/6J mice): 817.00 counts
COC(=O)N1CCC[C@H](NS(C)(=O)=O)[C@@H]1CO[C@H]1CC[C@@H](c2ccccc2)CC1 [Example 5, Methyl (2R,3S)-3-((methylsulfonyl)amino)-2-(((cis-4-phenylcyclohexyl)oxy)methyl)piperidine-1-carboxylate] |  |  | EC50 [1, 4]: 2.2 nM; Emax at 30 µM [1, 5]: 98%; locomotor activity (counts) (mean ± S.E.M., n = 8) (C57BL/6J mice): 1175.25 counts
CC(=O)N1CCC[C@H](NS(C)(=O)=O)[C@@H]1CO[C@H]1CC[C@@H](c2ccccc2C(F)F)CC1 [Example 323, N-((2R,3S)-1-acetyl-2-(((cis-4-(2-(difluoromethyl)phenyl)cyclohexyl)-oxy)methyl)piperidin-3-yl)methanesulfonamide] |  |  | EC50 ([1]; FLIPR TETRA, Fluo-4AM): 96 nM; Emax [1, 6]: 95%
COC(=O)N1CCC[C@H](NS(C)(=O)=O)[C@@H]1CO[C@H]1CC[C@@H](c2ccccc2C(F)F)CC1 [Example 324, methyl (2R,3S)-2-(((cis-4-(2-(difluoromethyl)phenyl)cyclohexyl)-oxy)methyl)-3-((methylsulfonyl)amino)piperidine-1-carboxylate] |  |  | Emax (%) ([1]; FLIPR TETRA, Fluo-4AM): 95%
COC(=O)N1CCC[C@H](NS(C)(=O)=O)[C@@H]1CO[C@H]1CC[C@@](O)(c2ccccc2)CC1 [Example 331, methyl cis-2-(((trans-4-hydroxy-4-phenylcyclohexyl)oxy)methyl)-3-((methylsulfonyl)amino)piperidine-1-carboxylate] |  |  | Emax [1, 6]: 98%
CS(=O)(=O)N[C@H]1CCCN(C(=O)CO)[C@H]1CO[C@H]1CC[C@@H](c2c(F)ccc(F)c2F)CC1 [Example 340, N-((2R,3S)-1-glycoloyl-2-(((cis-4-(2,3,6-trifluorophenyl)cyclohexyl)oxy)methyl)piperidin-3-yl)methanesulfonamide] |  |  | EC50 ([1]; FLIPR TETRA, Fluo-4AM): 2.5 nM; Emax [1, 6]: 109%; locomotor activity (counts) (mean ± S.E.M., n = 8) (C57BL/6J mice): 979.25 ± 109.96 counts
COC(=O)N1CCC[C@H](NS(C)(=O)=O)[C@@H]1CO[C@H]1CC[C@@H](c2ccc(O)cc2)CC1 [Example 348, methyl (2R,3S)-2-(((cis-4-(4-hydroxyphenyl)cyclohexyl)oxy)-methyl)-3-((methylsulfonyl)amino)piperidine-1-carboxylate] | 9.5 |  | Emax (%) (human OX2 receptor; [2]): 92%
CCNC(=O)N1CCC[C@H](NS(C)(=O)=O)[C@@H]1CO[C@H]1CCC[C@@H]1Oc1ccccc1 [Example 350, cis-N-ethyl-3-((methylsulfonyl)amino)-2-((((1S,2S)-2-phenoxycyclopentyl)oxy)methyl)-piperidine-1-carboxamide] | 1600 | 116 | 
N-(2-(((cis-4-(3-fluorophenyl)cyclohexyl)oxy)methyl)pyridin-3-yl)methanesulfonamide [Example 15] |  |  | EC50 [1, 4]: 280 nM; Emax [1, 5]: 105%

Source: patent US10287305B2, “Substituted piperidine compound and use thereof” (Takeda Pharmaceutical Company Limited, priority 2016, dated 2019)
